Test results taken from patent US20100093751A1, “Indolizineacetic Acids and Their Therapeutic Use as Ligands of the CRTH2 Receptor” (priority 2006, published 2010).

Target: T1, CRTH2 receptor (Homo sapiens, UniProt Q9Y5Y4)
T1 construct: expressed in transfected cells; host or cells: HEK (human embryonic kidney) cells, membranes
T1 sequence (Q9Y5Y4 1-395): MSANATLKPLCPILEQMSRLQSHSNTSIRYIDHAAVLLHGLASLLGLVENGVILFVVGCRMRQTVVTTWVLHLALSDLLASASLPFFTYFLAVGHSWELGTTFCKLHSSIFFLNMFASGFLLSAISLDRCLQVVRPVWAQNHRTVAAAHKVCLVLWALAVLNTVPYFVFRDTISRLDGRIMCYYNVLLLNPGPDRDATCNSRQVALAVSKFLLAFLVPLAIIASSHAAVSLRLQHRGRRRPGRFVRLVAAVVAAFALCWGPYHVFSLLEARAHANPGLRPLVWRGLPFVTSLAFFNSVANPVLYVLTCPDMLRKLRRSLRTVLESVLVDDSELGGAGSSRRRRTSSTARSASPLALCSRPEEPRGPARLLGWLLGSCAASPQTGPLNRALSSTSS
Test: CRTH2 radioligand binding assay ([3H]-PGD2 displacement, SPA)
Settings: HEK cell membranes expressing the CRTH2 receptor, 1 nM [3H]-PGD2; Ki from IC50 by Cheng-Prusoff equation
Method: Compounds of the invention were tested using the following biological test method to determine their ability to displace PGD2 from the CRTH2 receptor.
Radioligand Binding Assay
The receptor binding assay is performed in a final volume of 200 μL binding buffer [10 mM BES (pH 7.4), 1 mM EDTA, 10 mM manganese chloride, 0.01% BSA] and 1 nM [^3H]-PGD2 (Amersham Biosciences UK Ltd). Ligands are added in assay buffer containing a constant amount of DMSO (1% by volume). Total binding is determined using 1% by volume of DMSO in assay buffer and non-specific binding is determined using 10 μM of unlabeled PGD2 (Sigma). Human embryonic kidney (HEK) cell membranes (3.5 μg) expressing the CRTH2 receptor are incubated with 1.5 mg wheatgerm agglutinin SPA beads and 1 nM [^3H]-PGD2 (Amersham Biosciences UK Ltd) and the mixture incubated for 3 hours at room temperature. Bound [^3H]-PGD2 is detected using a Microbeta TRILUX liquid scintillation counter (Perkin Elmer). Compound IC50 value is determined using a 6-point dose response curve in duplicate with a semi-log compound dilution series. IC50 calculations are performed using Excel and XLfit (Microsoft), and this value is used to determine a Ki value for the test compound using the Cheng-Prusoff equation.

Cc1c(CC(=O)O)c2ccc(F)cn2c1Sc1ccc(S(=O)(=O)N2CCOCC2)cc1F [Example 1, {6-fluoro-3-[2-fluoro-4-(morpholine-4-sulfonyl)phenylsulfanyl]-2-methylindolizin-1-yl}acetic acid]
Ki: 0.5 nM

Cc1c(CC(=O)O)c2ccc(F)cn2c1Sc1ccc(-c2cnn(C)c2)cc1 [Example 4, {6-fluoro-2-methyl-3-[4-(1-methyl-1H-pyrazol-4-yl)phenylsulfanyl]indolizin-1-yl}acetic acid]
Ki: 19 nM
